In US9000166B2, “Metal complexes” (Merck Patent GmbH, priority 2005, dated 2015) one finds Solubility data, which are given here for 1 substance.

The nature of this data set: Solubility in various solvents at T=25° C. Type of data set: physicochemical. The source says: Excellent solubility of the complex is found in many common organic solvents, even in polar protic solvents, such as ethanol and ethanol/water mixtures. As comparison in accordance with the prior art, the solubility of fac-tris[2-(2-pyridinyl-κN)phenyl-κC]iridium(III) (IrPPy) is indicated.

Broadly, the Solubility is the dissolved amount per volume that the medium holds. Low values mean little dissolved substance, high ones much dissolved substance. In the case of “fac-Tris[2-(2-pyridinyl-κN)-5-(tri-n-butylphosphonium)phenyl)-κC]iridium(III) tribromide [Example 1]”, the Solubility entry reads like this: (Acetone) “unlimited”; (Chloroform) “unlimited”; (DMF) “unlimited”; (DMSO) “unlimited”; (Dichloromethane) “unlimited”; (Ethanol) 134.0 g/L. Moreover, the Solubility is more than 1.0 g/L (Hexane); “unlimited” (NMP); “unlimited” (Toluene); 11.5 g/L (Water); 43.0 g/L (Water/ethanol (1:1, v,v)).
